Earlier results in patent US7702465B2 (priority 2002, dated 2010).

How the values were obtained:
HLA A*0201 [1] = biological target: HLA A*0201 (Homo sapiens, UniProt P04439, /I218V/L300P/L318F/N151K/N90K/P208A/P217A/Q86G/Q94H/R138H/R169H/T345S); settings: binding to HLA A*0201; nonameric peptides from HPV E6 and E7; literature data of Rudolf et al. (2001)
HLA A*0201 [2] = biological target: HLA A*0201 (Homo sapiens, UniProt P04439, D140Y/D185E/D98H/E176V/E277Q/G131W/G231S/I119V/I121R/I166T/I218V/L300P/L318F/N151K/N90K/P208A/P217A/Q86G/Q94H/R138H/R169H/T345S); settings: binding peptides = the 15 of 247 with IC50 3 to 943 nM (Rudolf et al. 2001)

Sequence	IC50 (HLA A*0201 [1])	classification as binder to HLA A*0201 (HLA A*0201 [2])
FAFKDLFVV	3 nM	
FKDLFVVYR	500 nM	
LFLNTLSFV		binding peptides
LYNLLIRCL		binding peptides
